According to patent publication US20100292209A1, “METHODS FOR IDENTIFYING COMPOUNDS THAT MODULATE NEUROTROPHIC FACTOR SIGNALING” (Massachusetts Institute of Technology, priority 2007, published 2010):

How the values were obtained:
PC12-ErbB4-GFP cells [1] = test: Nrg1-induced neurite outgrowth, live-cell imaging; assay type: cell-based
Description: Average outgrowth per cell was measured after 2 days incubation. C. Cells were pretreated with Iressa or Tarceva at various concentrations for 30 minutes followed by 20 ng/ml Nrg1. Mean outgrowth per cell was measured after 2 days incubation. D. Cells were pretreated with 2 μM Iressa or DMSO for 30 minutes followed by 20 ng/ml Nrg1 or NGF and lysed after 5 minutes. Cell lysates were immunoprecipitated by anti-ErbB4 antibody followed by western blotting with antibodies against phospho-tyrosine and ErbB4. Phosphor-ERK1/2 and total Erk2 levels were determined by direct western blotting with cell lysates.
C. […] Mean outgrowth per cell was measured after 2 days incubation.

ERK/MAPK = ERK/MAPK phosphorylation (western blot of cell lysates); assay type: cell-based
Description: (§1) Average outgrowth per cell was measured after 2 days incubation. C. Cells were pretreated with Iressa or Tarceva at various concentrations for 30 minutes followed by 20 ng/ml Nrg1. Mean outgrowth per cell was measured after 2 days incubation. D. […] Cell lysates were immunoprecipitated by anti-ErbB4 antibody followed by western blotting with antibodies against phospho-tyrosine and ErbB4. Phosphor-ERK1/2 and total Erk2 levels were determined by direct western blotting with cell lysates.
(§2) Cells were lysed with RIPA buffer (Pierce Technology, Rockford, Ill.) containing 1 tablet/10 ml protease inhibitor cocktail Complete Mini (Roche Applied Science). For phosphoprotein analysis, Halt Phosphatase Inhibitor Cocktail (Pierce Technology) was also included. Cell lysate was cleared by centrifuge at 15,000 rpm for 30 min followed by addition of LDS sample buffer (Invitrogen) for direct analysis or immunoprecipitated with specific primary antibodies and Protein A/G agarose (Pierce Technology) following the manufacturer's protocol. […] The membrane was probed with specific primary antibodies according to specified recipes provided by their vendors and then horse radish peroxidase-conjugated secondary antibody to mouse or rabbit IgG (GE Healthcare, Piscataway, N.J.). Target protein bands were detected with SuperSignal West Femto Max Sensitivity Substrate (Pierce Technology).

ErbB4 [2] = biological target: T1, ErbB4 (Homo sapiens, UniProt Q15303); test: Iressa-conjugated agarose (iTrap) affinity capture of ErbB4 from cell lysate; assay type: binding; conditions: 10 uM free Iressa
T1 construct: expressed in transfected cells
T1 sequence (Q15303 26-1292 isoform Q15303-3 limits assumed): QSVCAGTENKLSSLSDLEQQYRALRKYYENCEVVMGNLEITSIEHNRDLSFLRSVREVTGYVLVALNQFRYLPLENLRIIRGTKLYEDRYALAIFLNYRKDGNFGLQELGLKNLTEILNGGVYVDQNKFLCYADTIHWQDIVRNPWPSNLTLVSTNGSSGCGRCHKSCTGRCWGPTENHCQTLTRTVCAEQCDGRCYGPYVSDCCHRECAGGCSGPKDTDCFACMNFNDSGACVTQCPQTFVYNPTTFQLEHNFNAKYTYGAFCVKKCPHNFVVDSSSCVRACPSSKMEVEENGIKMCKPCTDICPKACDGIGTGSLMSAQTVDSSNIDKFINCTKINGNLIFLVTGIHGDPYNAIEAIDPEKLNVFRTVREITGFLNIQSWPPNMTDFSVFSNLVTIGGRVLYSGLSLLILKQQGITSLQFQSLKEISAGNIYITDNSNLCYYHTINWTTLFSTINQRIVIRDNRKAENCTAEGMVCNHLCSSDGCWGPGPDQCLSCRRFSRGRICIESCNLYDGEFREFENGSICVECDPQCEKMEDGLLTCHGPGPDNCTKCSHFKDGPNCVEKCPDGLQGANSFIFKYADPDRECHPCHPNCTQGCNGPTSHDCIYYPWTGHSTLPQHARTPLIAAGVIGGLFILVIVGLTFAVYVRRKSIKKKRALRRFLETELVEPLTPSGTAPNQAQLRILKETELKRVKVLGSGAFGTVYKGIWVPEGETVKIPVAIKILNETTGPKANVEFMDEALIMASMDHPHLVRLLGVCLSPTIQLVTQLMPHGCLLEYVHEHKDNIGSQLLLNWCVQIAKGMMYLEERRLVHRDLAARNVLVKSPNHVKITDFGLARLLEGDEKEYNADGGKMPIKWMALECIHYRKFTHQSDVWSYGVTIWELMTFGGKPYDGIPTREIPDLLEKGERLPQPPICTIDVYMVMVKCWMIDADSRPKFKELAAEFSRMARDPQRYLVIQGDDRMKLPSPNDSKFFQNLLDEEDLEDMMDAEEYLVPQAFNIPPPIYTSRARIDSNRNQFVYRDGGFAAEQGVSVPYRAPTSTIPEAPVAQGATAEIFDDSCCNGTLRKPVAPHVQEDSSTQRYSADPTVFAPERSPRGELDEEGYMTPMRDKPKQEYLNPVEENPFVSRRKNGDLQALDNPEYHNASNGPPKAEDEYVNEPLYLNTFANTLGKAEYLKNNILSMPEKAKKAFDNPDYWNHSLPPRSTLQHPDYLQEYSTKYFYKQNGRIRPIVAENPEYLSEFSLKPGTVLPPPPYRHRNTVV
Description: PC12-ErbB4-GFP cells were lysed with modified RIPA buffer at 4° C. for 10 min and the cell lysate was cleared by centrifugation. The cleared lysate (0.40 ml) was tumbled with Iressa (10 μM) or DMSO (1:1000 v/v) as indicated at 4° C. for 30 min before addition of the iTrap resin (10 μA). The resulting mixture was tumbled at 4° C. for 12 hours. The suspension was centrifuged and the supernatant was discarded. The resin was washed with the above modified RIPA buffer (1.0 ml) for four times. The captured proteins were separated by SDS-PAGE. The Western immunoblotting experiment was then performed using anti-ErbB4 antibody.
Agarose beads (iTrap) conjugated with a derivative of Iressa (Iressa—2, FIG. 6A) were used to examine the affinity of Iressa against ErbB4.

ErbB4 [3] = biological target: T1, ErbB4; test: Nrg1-induced ErbB4 phosphorylation (immunoprecipitation, western blot); assay type: cell-based; conditions: 1 μM Iressa, 20 ng/ml Nrg1, lysed after 5 minutes
Description: as §1, §2

PC12-ErbB4 = test: Uptake of Alexa594-labeled Nrg1; assay type: cell-based; conditions: K252a 50 nM 12 hrs, then Alexa594-labeled Nrg1 30 min, compared to DMSO-treated cells
Description: (§3) A. Cells were treated without or with K252a (50 nM), K252a-Me (50 nM) for 30 min followed by treatment with or without 20 ng/mL Nrg1. Cells were lysed 12 hrs after Nrg1 treatment and analyzed by Western blot with anti-ErbB4 antibody. The bands that correspond to ErbB4 are indicated. B. Cells were treated without or with K252a (50 nM), K252a-Me (50 nM) for 12 hrs then fixed and immunostained with anti-ErbB4 and Alexa594 conjugated secondary antibody. GFP and Alexa594 fluorescent cell images were taken using a 20× objective. C. Cells were treated without or with K252a (50 nM) for 12 hrs followed by treatment of 20 ng/mL Alexa594-Nrg1 for 30 mins and fixed. GFP and Alexa594 fluorescent cell images were taken using a 40× objective.
(§4) This phenomenon, confirmed by immunofluorescence staining for ErbB4 in PC12-ErbB4 (FIG. 7B), might explain why K252a potentiate Nrg1-induced neurite outgrowth. To verify that increased level of ErbB4 does contribute to neuregulin signaling, we examined the Nrg1 uptake with Alexa594-labeled Nrg1 (FIG. 7C). Cells were treated with K252a for 12 hrs followed by Alexa594-labeled Nrg1 for 30 min.

PC12-ErbB4-GFP cells [4] = test: NGF-induced neurite outgrowth, live-cell imaging; assay type: cell-based
ErbB4 [5] = test: ErbB4 level (western blot, immunofluorescence staining); assay type: cell-based, human; conditions: 50 nM, 12 hrs treatment, PC12-ErbB4
Description: as §3, §4

NGF-TrkA signaling = conditions: compared with K252a; cited from earlier work
neurotrophin-3 = conditions: cited from earlier work
PFC pyramidal neuron = PFC pyramidal neuron current assay; cited from earlier work
[6] = test system: cultured hippocampal neurons; conditions: cited from earlier work

In the case of `COc1cc2ncnc(Nc3cccc(Cl)c3)c2cc1OC` [AG1478, 4-(3-Chloroanilino-6,7-dimethoxy)-quinazoline], the “effect on Nrg1-induced neurite outgrowth” value (PC12-ErbB4-GFP cells [1]; 1 μM AG1478, 20 ng/ml Nrg1, 2 days) is reported as “can specifically inhibit”.
In the case of `COc1cc2ncnc(Nc3ccc(F)c(Cl)c3)c2cc1OCCCN1CCOCC1` [Iressa, N-(3-chloro-4-fluoro-phenyl)-7-methoxy-6-(3-morpholin-4-ylpropoxy)quinazolin-4-amine], the “subsequent phosphorylation of ERK/MAPK (Nrg1-induced)” value (ERK/MAPK; 20 ng/ml Nrg1) is reported as “diminished”, the “NGF-induced MAPK activation” value (ERK/MAPK; Iressa, 20 ng/ml NGF) is reported as “did not affect” and the “precipitation of ErbB4 by iTrap in competition with free Iressa” value (ErbB4 [2]) is reported as “attenuated”. For the same compound, the “phosphorylation of ErbB4 receptors induced by Nrg1” value (ErbB4 [3]) was “inhibited”.
With `COC(=O)[C@@]1(O)C[C@H]2O[C@]1(C)n1c3ccccc3c3c4c(c5c6ccccc6n2c5c31)C(=O)NC4` [K252a, methyl (5R,6R,8R)-6-hydroxy-5-methyl-13-oxo-5,6,7,8,14,15-hexahydro-13H-5,8-epoxy-4b,8a,14-triazadibenzo[b,h]cycloocta[1,2,3,4-jkl]cyclopenta[e]-as-indacene-6-carboxylate] the “potentiation of Nrg1-induced neurite outgrowth” value (PC12-ErbB4-GFP cells [1]; same concentration range (10 nM)) was “potentiated”, the Nrg1 uptake (PC12-ErbB4) was “significantly higher” and the “inhibition of NGF-induced neurite outgrowth” value (PC12-ErbB4-GFP cells [4]; K252a at 10 nM) was “completely inhibited”. The “level of ErbB4” value (ErbB4 [5]) was “significantly increased”.
For `CC12OC(CC1(O)C(=O)O)n1c3ccccc3c3c4c(c5c6ccccc6n2c5c31)C(=O)NC4` (centres unmarked) [K252b], the “potency on inhibiting NGF-TrkA signaling” value (NGF-TrkA signaling) is listed as “much lower potency” and the “trophic action of neurotrophin-3” value (neurotrophin-3) is listed as “potentiates”.
In the case of `O=C1NCc2c1c1c3ccccc3[nH]c1c1[nH]c3ccccc3c21` [K252c], the “effect on Nrg1-induced neurite outgrowth in kinase inhibitor screening” value (PC12-ErbB4-GFP cells [1]; single dose (10 micromolar), 48 hours) is reported as “potentiates”.
In the case of `CNc1cc2c(Nc3cccc(Br)c3)ncnc2cn1` [PD158780], the “decrement in current caused by Nrg1” value (PFC pyramidal neuron) is given as “reverses” and the “Nrg1 induced neurite outgrowth in cultured hippocampal neurons” value [6] is given as “decreases”.
In the case of `C#Cc1cccc(Nc2ncnc3cc(OCCOC)c(OCCOC)cc23)c1` [Tarceva, N-(3-ethynylphenyl)-6,7-bis(2-methoxyethoxy)quinazolin-4-amine], the IC50 (PC12-ErbB4-GFP cells [1]; read-out: IC50 of inhibition of Nrg1-induced neurite outgrowth) is reported as 500 nM and the “inhibition of NGF-induced neurite outgrowth” value (PC12-ErbB4-GFP cells [4]; concentration range of 100 nM˜1 (data not shown)) is reported as “not inhibited”.
In the case of NGF: Nerve Growth Factor, neurotrophin, the “mean neurite length induced by NGF” value (PC12-ErbB4-GFP cells [4]; 20 ng/ml, in the presence of DMSO, 48 hours) is reported as 8.7±1.5 μm.
